Experimental data reported in paper PMC10316084, “Bacteroidota polysaccharide utilization system for branched dextran exopolysaccharides from lactic acid bacteria” (The Journal of Biological Chemistry, 2023).

Key:
[1] = molecular target: T1, FjDusD (Flavobacterium johnsoniae, UniProt A5FBI4); assay: isothermal titration calorimetry; type: binding; settings: 10 mM HEPES-NaOH pH 7.0, 25 °C; one-site model (n = 1)
T1 construct: gene Fjoh_4433; signal peptide evaluated by SignalP
T1 sequence (A5FBI4 22-494): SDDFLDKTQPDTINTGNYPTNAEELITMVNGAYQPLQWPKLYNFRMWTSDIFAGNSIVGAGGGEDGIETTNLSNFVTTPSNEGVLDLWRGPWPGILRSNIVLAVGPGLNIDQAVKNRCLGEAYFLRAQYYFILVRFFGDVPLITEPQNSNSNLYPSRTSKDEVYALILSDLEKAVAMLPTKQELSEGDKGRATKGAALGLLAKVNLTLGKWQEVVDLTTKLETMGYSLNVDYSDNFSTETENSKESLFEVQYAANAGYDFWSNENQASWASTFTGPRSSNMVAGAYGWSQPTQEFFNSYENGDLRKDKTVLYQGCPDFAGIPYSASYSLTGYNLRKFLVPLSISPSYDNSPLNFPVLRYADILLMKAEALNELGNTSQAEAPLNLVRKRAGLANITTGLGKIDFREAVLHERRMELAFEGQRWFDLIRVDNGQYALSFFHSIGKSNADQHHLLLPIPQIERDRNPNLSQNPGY
Source text: isothermal titration calorimetry on FjDusD

[2] = molecular target: T2, FjGH66 (Flavobacterium johnsoniae, UniProt A5FBI2); assay: X-ray crystal structure, […] Å; type: binding
T2 construct: gene Fjoh_4431; domains 41-126, 127-464, 485-586
T2 sequence (A5FBI2 34-586): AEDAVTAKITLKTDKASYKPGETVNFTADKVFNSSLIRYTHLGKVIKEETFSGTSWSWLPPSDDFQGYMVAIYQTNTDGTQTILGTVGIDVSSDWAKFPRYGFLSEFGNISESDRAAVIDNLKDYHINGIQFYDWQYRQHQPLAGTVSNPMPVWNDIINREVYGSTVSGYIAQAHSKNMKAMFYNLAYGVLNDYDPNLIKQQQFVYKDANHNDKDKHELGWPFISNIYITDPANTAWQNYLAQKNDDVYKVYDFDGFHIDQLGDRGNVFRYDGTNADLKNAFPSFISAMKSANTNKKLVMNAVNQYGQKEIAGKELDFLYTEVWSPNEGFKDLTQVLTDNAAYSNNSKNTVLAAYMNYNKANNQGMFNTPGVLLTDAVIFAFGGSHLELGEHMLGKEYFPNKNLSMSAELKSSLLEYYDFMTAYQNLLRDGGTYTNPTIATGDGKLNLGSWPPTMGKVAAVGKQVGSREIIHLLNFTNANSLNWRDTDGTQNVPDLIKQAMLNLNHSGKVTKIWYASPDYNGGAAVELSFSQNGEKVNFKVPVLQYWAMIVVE

| SMILES | Kd [1] | other results |
| --- | --- | --- |
| OC[C@H]1O[C@H](OC[C@H]2O[C@H](OC[C@H]3O[C@H](OC[C@H]4O[C@H](OC[C@H]5O[C@H](OC[C@H]6OC(O)[C@H](O)[C@@H](O)[C@@H]6O)[C@H](O)[C@@H](O)[C@@H]5O)[C@H](O)[C@@H](O)[C@@H]4O)[C@H](O)[C@@H](O)[C@@H]3O)[C@H](O)[C@@H](O)[C@@H]2O)[C@H](O)[C@@H](O)[C@@H]1O (stereo partly drawn) [Isomaltohexaose] | 467 ± 156 µM | – |
| OC[C@H]1O[C@H](OC[C@H]2O[C@H](OC[C@H]3O[C@H](OC[C@H]4O[C@H](OC[C@H]5OC(O)[C@H](O)[C@@H](O)[C@@H]5O)[C@H](O)[C@@H](O)[C@@H]4O)[C@H](O)[C@@H](O)[C@@H]3O)[C@H](O)[C@@H](O)[C@@H]2O)[C@H](O)[C@@H](O)[C@@H]1O (stereo partly drawn) [Isomaltopentaose] | 226 ± 29 µM | – |
| OC[C@H]1O[C@H](OC[C@H]2OC(O)[C@H](O)[C@@H](O)[C@@H]2O)[C@H](O)[C@@H](O)[C@@H]1O (stereo partly drawn) [Isomaltose] | – | X-ray crystal structure, 1.80 Å ([2]; crystal soaked with 10 mM IG2): complexes with glucose, IG2, or IG3 were determined |
| OC[C@H]1O[C@H](OC[C@H]2O[C@H](OC[C@H]3O[C@H](OC[C@H]4OC(O)[C@H](O)[C@@H](O)[C@@H]4O)[C@H](O)[C@@H](O)[C@@H]3O)[C@H](O)[C@@H](O)[C@@H]2O)[C@H](O)[C@@H](O)[C@@H]1O (stereo partly drawn) [Isomaltotetraose] | 326 ± 14 µM | – |
| OC[C@H]1O[C@H](OC[C@H]2O[C@H](OC[C@H]3OC(O)[C@H](O)[C@@H](O)[C@@H]3O)[C@H](O)[C@@H](O)[C@@H]2O)[C@H](O)[C@@H](O)[C@@H]1O (stereo partly drawn) [Isomaltotriose] | 621 ± 23 µM | – |
| OC[C@H]1OC(O)[C@H](O)[C@@H](O)[C@@H]1O (stereo partly drawn) [glucose] | – | X-ray crystal structure, 1.80 Å ([2]; crystal soaked with 10 mM glucose): complexes with glucose, IG2, or IG3 were determined |
